Reference: the supplement of paper PMC10627819

What was measured:
Settings in all cases: main component drawn
[1] = test system: B. subtilis 168; test: Bliss interaction score (quartile over a dose matrix) (fitness difference); higher = more antagonism (negative = synergy)
How it was run: (§1)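 Growth in each well was taken as OD595 at entry into stationary phase. Dividing by the plate's robust no-drug mean and capping at 1 gave fitness, and single-drug fitness was inferred from the combination data. The Bliss score, observed minus product-expected fitness, is summarised by quartiles over technical, biological and donor/recipient replicates.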

[2] = test system: S. pneumoniae D39V; test: as above
How it was run: as §1

[3] = test system: S. aureus Newman; test: as above
How it was run: as §1

[4] = test system: S. aureus DSM 20231; test: as above
How it was run: as §1

[5] = test system: B. subtilis 168; test: fitness (endpoint OD595 vs no drug) (fraction); higher = more growth
How it was run: (§2)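 Cultures at OD595 0.01 were dispensed into 384-well plates in TSB, LB Lennox or CY and incubated at 37 °C. Every 30 min for 14 h, OD595 was read and corrected by the first reading. Fitness is the optical density at entry into stationary phase relative to the robust mean of no-drug control wells, capped at 1.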

[6] = test system: S. aureus Newman; test: as above
How it was run: as §2
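For Bliss interaction score (quartile over a dose matrix) in this document: first quartile when negative (synergy) and third quartile when positive (antagonism).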

CC[C@H](C)[C@H](N)C1=N[C@H](C(=O)N[C@@H](CC(C)C)C(=O)N[C@H](CCC(=O)O)C(=O)N[C@H](C(=O)N[C@H]2CCCCNC(=O)[C@H](CC(N)=O)NC(=O)[C@@H](CC(=O)O)NC(=O)[C@H](Cc3cnc[nH]3)NC(=O)[C@@H](Cc3ccccc3)NC(=O)[C@H]([C@@H](C)CC)NC(=O)[C@@H](CCCN)NC2=O)[C@@H](C)CC)CS1 [Bacitracin] + C[C@@H]1O[C@@H]1P(=O)(O)O [Fosfomycin]
Settings | Bliss interaction score
[1] | 0.0941
[2] | -0.0469
[3] | 0.102
[4] | 0.109

fitness
Settings | first compound 18.75 µg/mL | first compound 37.5 µg/mL | first compound 75 µg/mL | first compound 150 µg/mL
[5], partner 1.562 µg/mL | – | 0.697 | 0.662 | 0.607
[5], partner 3.124 µg/mL | – | 0.61 | 0.594 | 0.488
[5], partner 6.248 µg/mL | – | 0.501 | 0.51 | 0.427
[6], partner 0.781 µg/mL | 0.507 | 0.0984 | 0.0911 | –
[6], partner 1.562 µg/mL | 0.471 | – | 0.0362 | –
[6], partner 3.124 µg/mL | 0.174 | 0.0141 | 0.0222 | –

CC[C@H](C)[C@H](N)C1=N[C@H](C(=O)N[C@@H](CC(C)C)C(=O)N[C@H](CCC(=O)O)C(=O)N[C@H](C(=O)N[C@H]2CCCCNC(=O)[C@H](CC(N)=O)NC(=O)[C@@H](CC(=O)O)NC(=O)[C@H](Cc3cnc[nH]3)NC(=O)[C@@H](Cc3ccccc3)NC(=O)[C@H]([C@@H](C)CC)NC(=O)[C@@H](CCCN)NC2=O)[C@@H](C)CC)CS1 [Bacitracin] + CO/N=C(\C(=O)N[C@@H]1C(=O)N2C(C(=O)O)=C(COC(C)=O)CS[C@H]12)c1csc(N)n1 [Cefotaxime]
Settings | Bliss interaction score
[1] | -0.1
[2] | -0.0668
[3] | -0.1
[4] | -0.0827

fitness, [5], one replicate
Settings | partner 0.00775 µg/mL | partner 0.0155 µg/mL | partner 0.031 µg/mL | partner 0.0625 µg/mL | partner 0.125 µg/mL | partner 0.25 µg/mL
first compound 37.5 µg/mL | 0.831 | 0.724 | 0.52 | 0.479 | 0.314 | 0.297
first compound 75 µg/mL | 0.749 | 0.521 | 0.342 | 0.257 | 0.12 | 0.111
first compound 150 µg/mL | 0.326 | 0.035 | 0 | 0.0561 | 0.0401 | 0.0433

fitness
Settings | partner 0.078 µg/mL | partner 0.156 µg/mL | partner 0.312 µg/mL | partner 0.5 µg/mL | partner 0.625 µg/mL | partner 1 µg/mL | partner 1.25 µg/mL | partner 2 µg/mL | partner 2.5 µg/mL
[5], first compound 37.5 µg/mL | – | – | – | 0.274 | – | 0.137 | – | 0.134 | –
[5], first compound 75 µg/mL | – | – | – | 0.202 | – | 0.0939 | – | 0.0639 | –
[5], first compound 150 µg/mL | – | – | – | 0.0854 | – | 0.0162 | – | 0.0303 | –
[6], first compound 18.75 µg/mL | 0.465 | 0.0868 | 0.0343 | – | 0.0178 | – | 0.0266 | – | 0.0285
[6], first compound 37.5 µg/mL | 0.0257 | 0.0132 | 0.0259 | – | 0.0287 | – | 0.0203 | – | 0.0237
[6], first compound 75 µg/mL | 0.0416 | 0.031 | 0.0324 | – | 0.0342 | – | 0.0412 | – | 0.0372

CC[C@H](C)[C@H](N)C1=N[C@H](C(=O)N[C@@H](CC(C)C)C(=O)N[C@H](CCC(=O)O)C(=O)N[C@H](C(=O)N[C@H]2CCCCNC(=O)[C@H](CC(N)=O)NC(=O)[C@@H](CC(=O)O)NC(=O)[C@H](Cc3cnc[nH]3)NC(=O)[C@@H](Cc3ccccc3)NC(=O)[C@H]([C@@H](C)CC)NC(=O)[C@@H](CCCN)NC2=O)[C@@H](C)CC)CS1 [Bacitracin] + CN(N=O)C(=O)N[C@@H](C=O)[C@@H](O)[C@H](O)[C@H](O)CO [Streptozotocin]
Settings | Bliss interaction score
[1] | 0.0453
[2] | -0.0625
[3] | -0.104
[4] | -0.0576

fitness
Settings | partner 0.15 µg/mL | partner 0.3 µg/mL | partner 0.6 µg/mL
[5], first compound 37.5 µg/mL | 0.913 | 0.856 | 0.906
[5], first compound 75 µg/mL | 0.806 | 0.857 | 0.876
[6], first compound 18.75 µg/mL | 0.59 | 0.526 | 0.245
[6], first compound 37.5 µg/mL | 0.124 | 0.0706 | 0.0163
[6], first compound 75 µg/mL | 0.0279 | 0.0183 | 0.0064

CC[C@H](C)[C@H](N)C1=N[C@H](C(=O)N[C@@H](CC(C)C)C(=O)N[C@H](CCC(=O)O)C(=O)N[C@H](C(=O)N[C@H]2CCCCNC(=O)[C@H](CC(N)=O)NC(=O)[C@@H](CC(=O)O)NC(=O)[C@H](Cc3cnc[nH]3)NC(=O)[C@@H](Cc3ccccc3)NC(=O)[C@H]([C@@H](C)CC)NC(=O)[C@@H](CCCN)NC2=O)[C@@H](C)CC)CS1 [Bacitracin] + O=C(O)c1cn(C2CC2)c2cc(N3CCNCC3)c(F)cc2c1=O [Ciprofloxacin]
Settings | Bliss interaction score
[1] | -0.0665
[2] | -0.13
[3] | -0.0418
[4] | -0.0438

fitness
Settings | first compound 18.75 µg/mL | first compound 37.5 µg/mL | first compound 75 µg/mL | first compound 150 µg/mL
[5], partner 0.0098 µg/mL | – | 0.88 | 0.889 | 0.897
[5], partner 0.0195 µg/mL | – | 0.718 | 0.659 | 0.559
[5], partner 0.039 µg/mL | – | 0.201 | 0.0773 | 0.0355
[6], partner 0.0375 µg/mL | 0.524 | 0.199 | 0.0079 | –
[6], partner 0.075 µg/mL | – | 0.0916 | 0.013 | –
[6], partner 0.15 µg/mL | 0.0536 | 0.0155 | 0.0083 | –

CC[C@H](C)[C@H](N)C1=N[C@H](C(=O)N[C@@H](CC(C)C)C(=O)N[C@H](CCC(=O)O)C(=O)N[C@H](C(=O)N[C@H]2CCCCNC(=O)[C@H](CC(N)=O)NC(=O)[C@@H](CC(=O)O)NC(=O)[C@H](Cc3cnc[nH]3)NC(=O)[C@@H](Cc3ccccc3)NC(=O)[C@H]([C@@H](C)CC)NC(=O)[C@@H](CCCN)NC2=O)[C@@H](C)CC)CS1 [Bacitracin] + CO/N=C(\C(=O)N[C@@H]1C(=O)N2C(C(=O)O)=C(COC(N)=O)CS[C@H]12)c1ccco1 [Cefuroxime]
Settings | Bliss interaction score
[1] | -0.0903
[2] | 0.0554
[3] | -0.0659
[4] | -0.188

fitness, [5]
Settings | first compound 37.5 µg/mL | first compound 75 µg/mL | first compound 150 µg/mL
partner 0.04875 µg/mL | 0.691 | 0.612 | –
partner 0.0975 µg/mL | 0.629 | 0.529 | 0.275
partner 0.195 µg/mL | 0.338 | 0.334 | 0.0599

fitness, one replicate
Settings | partner 0.04875 µg/mL | partner 0.0975 µg/mL | partner 0.195 µg/mL | partner 0.39 µg/mL | partner 0.78 µg/mL | partner 1.562 µg/mL | partner 3.125 µg/mL | partner 6.25 µg/mL
[5], first compound 37.5 µg/mL | – | – | – | 0.293 | 0.266 | 0.419 | 0.351 | 0.269
[5], first compound 75 µg/mL | – | – | – | 0.089 | 0.0839 | 0.352 | 0.323 | 0.257
[5], first compound 150 µg/mL | – | – | – | 0.0217 | 0.0185 | 0.306 | 0.238 | 0.155
[6], first compound 18.75 µg/mL | 0.634 | 0.599 | 0.287 | – | – | – | – | –
[6], first compound 37.5 µg/mL | 0.0709 | 0.0498 | 0.025 | – | – | – | – | –
[6], first compound 75 µg/mL | 0.0097 | 0.0027 | 0.0172 | – | – | – | – | –

CC[C@H](C)[C@H](N)C1=N[C@H](C(=O)N[C@@H](CC(C)C)C(=O)N[C@H](CCC(=O)O)C(=O)N[C@H](C(=O)N[C@H]2CCCCNC(=O)[C@H](CC(N)=O)NC(=O)[C@@H](CC(=O)O)NC(=O)[C@H](Cc3cnc[nH]3)NC(=O)[C@@H](Cc3ccccc3)NC(=O)[C@H]([C@@H](C)CC)NC(=O)[C@@H](CCCN)NC2=O)[C@@H](C)CC)CS1 [Bacitracin] + C[n+]1ccc(-c2cc[n+](C)cc2)cc1 [Paraquat]
Settings | Bliss interaction score
[1] | 0.115
[2] | 0.0921
[3] | 0.0836
[4] | -0.0542

fitness
Settings | first compound 18.75 µg/mL | first compound 37.5 µg/mL | first compound 75 µg/mL | first compound 150 µg/mL
[5], partner 1.25 µg/mL | – | 0.931 | 0.924 | 0.844
[5], partner 2.5 µg/mL | – | 0.886 | 0.846 | 0.826
[5], partner 5 µg/mL | – | 0.746 | 0.656 | –
[6], partner 1.25 µg/mL | 0.673 | 0.276 | 0.0637 | –
[6], partner 2.5 µg/mL | 0.725 | 0.315 | 0.0696 | –
[6], partner 5 µg/mL | 0.669 | 0.349 | 0.0708 | –
